Measured values: patent US20120059162A1, “FUSED IMIDAZOLE DERIVATIVE HAVING TTK INHIBITORY ACTION” (Oncotherapy Science, Inc., priority 2009, published 2012)
Read-outs that look alike come from different tables or passages of the source.

What was measured:
TTK = molecular target: T1, TTK (Homo sapiens, UniProt P33981); experiment: TTK assay: screening of TTK kinase activity suppressing action using p38 MAPK peptide; format: biochemical; details: read-out: TTK IC50
T1 sequence (P33981 1-857): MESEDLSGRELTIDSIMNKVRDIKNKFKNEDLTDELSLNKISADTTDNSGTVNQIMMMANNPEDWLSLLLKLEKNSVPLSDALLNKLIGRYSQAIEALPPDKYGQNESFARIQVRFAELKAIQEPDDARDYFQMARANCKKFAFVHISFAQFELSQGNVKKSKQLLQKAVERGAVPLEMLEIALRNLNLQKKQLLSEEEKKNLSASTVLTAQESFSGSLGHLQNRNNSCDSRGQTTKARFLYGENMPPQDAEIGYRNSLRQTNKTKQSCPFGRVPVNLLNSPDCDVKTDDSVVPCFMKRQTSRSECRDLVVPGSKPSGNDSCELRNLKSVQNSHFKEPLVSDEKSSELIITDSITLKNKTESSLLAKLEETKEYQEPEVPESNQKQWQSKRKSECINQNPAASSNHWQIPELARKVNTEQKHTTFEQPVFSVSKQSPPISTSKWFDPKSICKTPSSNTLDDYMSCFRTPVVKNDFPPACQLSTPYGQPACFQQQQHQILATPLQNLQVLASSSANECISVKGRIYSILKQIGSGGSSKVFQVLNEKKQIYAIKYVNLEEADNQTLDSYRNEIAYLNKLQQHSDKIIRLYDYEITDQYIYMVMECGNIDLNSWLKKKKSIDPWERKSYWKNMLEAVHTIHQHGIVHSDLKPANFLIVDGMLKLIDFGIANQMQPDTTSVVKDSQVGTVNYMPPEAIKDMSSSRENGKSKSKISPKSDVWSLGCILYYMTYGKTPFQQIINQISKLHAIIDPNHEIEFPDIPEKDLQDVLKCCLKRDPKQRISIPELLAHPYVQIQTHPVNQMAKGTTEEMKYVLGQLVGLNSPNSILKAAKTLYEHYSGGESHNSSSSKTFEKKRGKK
Summary of the method: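 TTK (4 μg/ml in enzyme solution) mixed with p38 MAPK peptide and ATP (each 60 μM in substrate solution) in Tris-HCl pH 7.5 with MgCl2, DTT, Na3VO4, β-glycerophosphate, BSA. Reaction aliquot captured on NeutrAvidin plate, detected with Eu-labelled anti-mouse IgG by time-resolved fluorescence; inhibition relative to no-compound signal.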

A549 = A549 assay: screening of cancer cell growth inhibiting compound; format: cell-based; details: Homo sapiens, A549 cells, read-out: A549 IC50
Summary of the method: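 A549 cells (1×10^4/ml) in D-MEM with 10% FBS were pre-incubated one day at 37 °C, then exposed to compound dilutions for three further days. Viable cell number read by WST-8 (1–4 hours), absorbance 450 nm (reference 620 nm); inhibition calculated relative to untreated wells.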

Compound | IC50 (TTK; p38 MAPK peptide substrate) | IC50 (A549; 72 h, three days, WST-8) | IC50 (TTK) | IC50 (A549; values given as IC50 intervals)
O=C(NC1CC1)c1ccc(-c2cnc3c(NCC4CCCC4)cc(NC4CCCCC4)nn23)cc1 [Example 2-129] | 6.7 nM | 50 to 500 nM |  | 
O=C(NC1CC1)c1ccc(-c2cnc3c(NCC4CCOCC4)cc(NC4CC=CC4)nn23)cc1 [Example 2-54] | 7.4 nM | 50 to 500 nM |  | 
CC1(Nc2cc(NCC3CCOCC3)c3ncc(-c4ccc(C(=O)NC5CC5)cc4)n3n2)CCCCC1 [Example 2-74] | 2.6 nM | ≤ 50 nM |  | 
CC(=O)NCC1CN(c2cc(NCC3CCOCC3)c3ncc(-c4ccc(C(=O)NC5CC5)cc4)n3n2)CCO1 (centres unmarked) [Example 2-48] | 13.9 nM | 1000 to 10000 nM |  | 
O=C(NC1CC1)c1ccc(-c2cnc3c(NCC4CCOCC4)cc(C=C4CCCC4)nn23)cc1 [Example 2-209] |  |  | 8.2 nM | 50 to 500 nM
O=C(NC1CC1)c1ccc(-c2cnc3c(NCC4CCOCC4)cc(Oc4ccccc4C(F)(F)F)nn23)cc1 [Example 2-96] | 7.5 nM | 50 to 500 nM |  | 
N#Cc1ccc(-c2cc(NCC3CCOCC3)c3ncc(-c4ccc(C(=O)NC5CC5)cc4)n3n2)cn1 [Example 2-199] |  |  | 7.4 nM | 50 to 500 nM
O=C(NC1CC1)c1ccc(-c2cnc3c(NCC4CCOCC4)cc(NC4CCCC4)nn23)cc1O [Example 2-229] |  |  | 4.4 nM | 50 to 500 nM
CC(C)C(Nc1cc(NCC2CCOCC2)c2ncc(-c3ccc(C(=O)NC4CC4)cc3)n2n1)C(F)(F)F (centres unmarked) [Example 2-78] | 3.5 nM | ≤ 50 nM |  | 
COc1ccccc1Oc1cc(NCC2CCOCC2)c2ncc(-c3ccc(C(=O)NC4CC4)cc3)n2n1 [Example 2-95] | 2.5 nM | 50 to 500 nM |  | 
C#CC1(Nc2cc(NCC3CCOCC3)c3ncc(-c4ccc(C(=O)NC5CC5)cc4)n3n2)CCCCC1 [Example 2-77] | 21.3 nM | 500 to 1000 nM |  | 
O=C(NC1CC1)c1ccc(-c2cnc3c(NCC(F)(F)F)cc(NC4CCCCC4)nn23)cc1 [Example 2-145] | 3 nM | 50 to 500 nM |  | 
C[C@@H]1CN(c2cc(NCC3CCOCC3)c3ncc(-c4ccc(C(=O)NC5CC5)cc4)n3n2)C[C@H](C)O1 [Example 2-41] | 10.1 nM | 50 to 500 nM |  | 
N#Cc1ccc(-c2cn3c(-c4ccc(C(=O)NC5CC5)cc4)cnc3c(NCCOCCO)n2)cc1 [Example 1-217] | 48.9 nM | 1000 to 10000 nM |  | 
CC(C)N(C)c1cc(NCC2CCOCC2)c2ncc(-c3ccc(C(=O)NC4CC4)cc3)n2n1 [Example 2-24] | 5.5 nM | 50 to 500 nM |  | 
CC(CNc1cc(NC2CCCCC2)nn2c(-c3ccc(C(=O)NC4CC4)cc3)cnc12)C(F)(F)F (centres unmarked) [Example 2-162] | 3.6 nM | 50 to 500 nM |  | 
O=C(NC1CC1)c1ccc(-c2cnc3c(NCC4CCOCC4)cc(N4CCC(C(F)(F)F)CC4)nn23)cc1 [Example 2-51] | 13.4 nM | 50 to 500 nM |  | 
O=C(NC1CC1)c1ccc(-c2cnc3c(NCC4CCOCC4)cc(Nc4ncccc4O)nn23)cc1 [Example 2-35] | 19.3 nM | 1000 to 10000 nM |  | 
O=C(NC1CC1)c1ccc(-c2cnc3c(NCC4CCOCC4)cc(Nc4ccccc4O)nn23)cc1 [Example 2-34] | 3.7 nM | 50 to 500 nM |  | 
O=C(NC1CC1)c1ccc(-c2cnc3c(NCC4CCOCC4)cc(Oc4ccc(Cl)cc4)nn23)cc1 [Example 2-93] | 3.3 nM | 50 to 500 nM |  | 
Cc1cccc(C)c1Oc1cc(NCC2CCOCC2)c2ncc(-c3ccc(C(=O)NC4CC4)cc3)n2n1 [Example 2-107] | 34.4 nM | 50 to 500 nM |  | 
N#Cc1ccc(-c2cn3c(-c4ccc(C(=O)NC5CC5)cc4)cnc3c(NCCOCCOCCO)n2)cc1 [Example 1-237] | 39.9 nM | 1000 to 10000 nM |  | 
N#Cc1ccc(-c2cn3c(-c4ccc(C(=O)NC5CC5)cc4)cnc3c(NCCc3cccc(O)c3)n2)cc1 [Example 1-226] | 17.1 nM | 500 to 1000 nM |  | 
Nc1cccc(Oc2cc(NCC3CCOCC3)c3ncc(-c4ccc(C(=O)NC5CC5)cc4)n3n2)c1 [Example 2-91] | 2.3 nM | ≤ 50 nM |  | 
O=C(NC1CC1)c1ccc(-c2cnc3c(NCC4CCOCC4)cc(NC4CCC4)nn23)cc1 [Example 2-25] | 5.6 nM | 50 to 500 nM |  | 

Compound | IC50 (TTK; p38 MAPK peptide substrate) | IC50 (A549; 72 h, three days, WST-8) | IC50 (TTK) | IC50 (A549; values given as IC50 intervals)
NC(=O)c1ccc(-c2cc(NCC3CCOCC3)c3ncc(-c4ccc(C(=O)NC5CC5)cc4)n3n2)cc1 [Example 2-4, 4-(6-(4-Carbamoylphenyl)-8-((tetrahydro-2H-pyran-4-yl)methylamino)imidazo[1,2-b]pyridazin-3-yl)-N-cyclopropylbenzamide] | 4.5 nM | 1000 to 10000 nM |  | 
O=C(NC1CC1)c1ccc(-c2cnc3c(NCC4CCC4)cc(NC4CCCCC4)nn23)cc1 [Example 2-128] | 7.4 nM | 50 to 500 nM |  | 
CN(c1cc(NCC2CCOCC2)c2ncc(-c3ccc(C(=O)NC4CC4)cc3)n2n1)C1CCCC1 [Example 2-28] | 3.7 nM | 50 to 500 nM |  | 
O=C(NC1CC1)c1ccc(-c2cnc3c(NCC4CCOCC4)cc(Oc4cccc(C(F)(F)F)c4)nn23)cc1 [Example 2-111] | 3.8 nM | 50 to 500 nM |  | 
CCC(CC)CNc1cc(NC2CCCCC2)nn2c(-c3ccc(C(=O)NC4CC4)cc3)cnc12 [Example 2-133] | 6.8 nM | 50 to 500 nM |  | 
CC(=O)N1CC=C(c2cc(NCC3CCOCC3)c3ncc(-c4ccc(C(=O)NC5CC5)cc4)n3n2)CC1 [Example 2-213] |  |  | 12 nM | 50 to 500 nM
CCN(c1cc(NCC2CCOCC2)c2ncc(-c3ccc(C(=O)NC4CC4)cc3)n2n1)C1CCCC1 [Example 2-27] | 6 nM | 50 to 500 nM |  | 
N#Cc1ccc(-c2cn3c(-c4ccc(C(=O)NC5CC5)cc4)cnc3c(NCC3COCCO3)n2)cc1 (centres unmarked) [Example 1-222] | 16.8 nM | 50 to 500 nM |  | 
COc1cc(-c2cnc3c(NCC4CCOCC4)cc(NC4CCCC4)nn23)ccc1C(=O)NC1CC1 [Example 2-233] |  |  | 5.7 nM | 500 to 1000 nM
Nc1ccccc1Oc1cc(NCC2CCOCC2)c2ncc(-c3ccc(C(=O)NC4CC4)cc3)n2n1 [Example 2-97] | 3.3 nM | ≤ 50 nM |  | 
O=C(NC1CC1)c1ccc(-c2cnc3c(NCC4CCOCC4)cc(NC4CCCC4)nn23)c(Cl)c1 [Example 2-231] |  |  | 5.7 nM | 50 to 500 nM
O=C(NC1CC1)c1ccc(-c2cnc3c(NCc4ccoc4)cc(NC4CCCCC4)nn23)cc1 [Example 2-157] | 3.4 nM | 50 to 500 nM |  | 
O=C(NC1CC1)c1ccc(-c2cnc3c(NCC4CCOCC4)cc(Oc4cccc(F)c4)nn23)cc1 [Example 2-106] | 6.4 nM | ≤ 50 nM |  | 
CC1(Oc2cc(NCC3CCOCC3)c3ncc(-c4ccc(C(=O)NC5CC5)cc4)n3n2)CCCC1 [Example 2-192] |  |  | 2.1 nM | 50 to 500 nM
Cc1cccc(Oc2cc(NCC3CCOCC3)c3ncc(-c4ccc(C(=O)NC5CC5)cc4)n3n2)c1 [Example 2-102] | 3 nM | 50 to 500 nM |  | 
N#Cc1ccc(-c2cn3c(-c4ccc(C(=O)NC5CC5)cc4)cnc3c(NCCCCO)n2)cc1 [Example 1-238] | 14.3 nM | 50 to 500 nM |  | 
O=C(NC1CC1)c1ccc(-c2cnc3c(NCC4CCOCC4)cc(Oc4cccc(O)c4)nn23)cc1 [Example 2-110] | 2.9 nM | 50 to 500 nM |  | 
O=C(NC1CC1)c1ccc(-c2cnc3c(NCC4CCOCC4)c(F)c(OC4CCCC4)nn23)cc1 [Example 2-217] |  |  | 13.9 nM | 1000 to 10000 nM
O=C(NC1CC1)c1ccc(-c2cnc3c(NCC4CCOCC4)c(Cl)c(NC4CCCC4)nn23)cc1 [Example 2-218] |  |  | 12.6 nM | 500 to 1000 nM
CC(=O)N1CCC(CNc2cc(NC3CCCCC3)nn3c(-c4ccc(C(=O)NC5CC5)cc4)cnc23)CC1 [Example 2-127] | 5 nM | 50 to 500 nM |  | 
O=C(NC1CC1)c1ccc(-c2cnc3c(NCc4ccncc4)cc(NC4CCCCC4)nn23)cc1 [Example 2-155] | 4.1 nM | 50 to 500 nM |  | 
O=C(NC1CC1)c1ccc(-c2cnc3c(NCC4CC4)cc(NC4CCCCC4)nn23)cc1 [Example 2-132] | 6.8 nM | 50 to 500 nM |  | 
N#Cc1ccc(-c2cn3c(-c4ccc(C(=O)NC5CC5)cc4)cnc3c(NC[C@H]3CC[C@H](C(=O)O)CC3)n2)cc1 [Example 1-239] | 4.8 nM | 1000 to 10000 nM |  | 
O=C(NC1CC1)c1ccc(-c2cnc3c(NCC4CCOCC4)cc(NC4CCCCC4O)nn23)cc1 (centres unmarked) [Example 2-70] | 4.5 nM | 50 to 500 nM |  | 
